The source of these data is patent publication US20250101430A1, “METHODS OF CANCER TREATMENT BY INHIBITION OF VASCULOGENESIS AND GLI1” (priority 2021, published 2025).

One experiment concerns HUVEC cells. The settings on record: cited from earlier work.
A further experiment has as its system DNA. The settings on record: cited from earlier work.
The target of the next experiment is T1, GLI1 (Homo sapiens, UniProt P08151).
T1 sequence (P08151 1-1106): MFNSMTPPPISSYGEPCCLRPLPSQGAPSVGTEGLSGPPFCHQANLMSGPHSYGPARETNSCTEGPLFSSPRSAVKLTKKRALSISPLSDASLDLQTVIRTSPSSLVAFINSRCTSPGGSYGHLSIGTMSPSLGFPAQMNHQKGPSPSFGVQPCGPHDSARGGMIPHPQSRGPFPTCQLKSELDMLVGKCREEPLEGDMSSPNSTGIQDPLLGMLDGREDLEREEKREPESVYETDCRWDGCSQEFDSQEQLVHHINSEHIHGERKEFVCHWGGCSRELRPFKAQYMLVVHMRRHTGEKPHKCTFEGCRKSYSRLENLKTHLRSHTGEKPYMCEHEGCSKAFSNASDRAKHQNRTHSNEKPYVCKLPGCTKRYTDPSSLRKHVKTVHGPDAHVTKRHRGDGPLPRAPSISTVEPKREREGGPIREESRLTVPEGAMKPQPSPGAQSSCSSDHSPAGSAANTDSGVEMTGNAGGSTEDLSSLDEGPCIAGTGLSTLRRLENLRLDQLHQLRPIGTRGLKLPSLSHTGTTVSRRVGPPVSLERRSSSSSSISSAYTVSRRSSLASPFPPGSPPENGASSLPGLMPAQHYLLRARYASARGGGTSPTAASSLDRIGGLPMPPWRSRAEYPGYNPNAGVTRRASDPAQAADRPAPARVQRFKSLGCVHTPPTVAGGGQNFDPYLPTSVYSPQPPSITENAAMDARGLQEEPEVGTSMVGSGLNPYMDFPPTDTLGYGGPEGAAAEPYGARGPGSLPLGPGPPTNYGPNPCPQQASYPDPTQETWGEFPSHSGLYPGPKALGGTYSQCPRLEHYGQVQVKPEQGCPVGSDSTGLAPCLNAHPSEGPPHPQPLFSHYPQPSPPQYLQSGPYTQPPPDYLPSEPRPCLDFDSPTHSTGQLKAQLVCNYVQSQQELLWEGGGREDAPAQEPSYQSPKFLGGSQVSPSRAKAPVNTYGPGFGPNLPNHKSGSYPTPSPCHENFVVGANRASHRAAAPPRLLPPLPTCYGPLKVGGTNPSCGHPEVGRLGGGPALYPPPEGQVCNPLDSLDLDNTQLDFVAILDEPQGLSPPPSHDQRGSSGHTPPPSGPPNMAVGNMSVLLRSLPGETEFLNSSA
The settings on record: between zinc fingers 2 and 3 at sites E119 and E167; cited from earlier work.

In experiment [1] the test system is human colon carcinoma cell lines. The settings on record: panel of 7 human colon carcinoma cell lines; cited from earlier work.
The next experiment deals with Rh41 cells. The experiment can be described thus: rt-PCR of GLI1 target gene Bcl-2 in GANT-61 treated Rh41 cells. The class given is cell-based. The protocol: (§1) High-Capacity RNA-to-cDNA kit (Applied Biosystems) was used to reverse transcribe the isolated RNA. Each reaction tube included up to 2 μg of RNA. The reverse transcription reaction was performed according to manufacturer instructions via the MBS Satellite (0.2 G) Thermal Cycler (ThermoFisher Scientific). The qPCR reaction mix was prepared by adding 12 ng of cDNA from each sample to the PowerUp SYBR Green Master Mix (2×) (Applied Biosystems). qPCR was performed (Standard Cycling Mode, primer Tm<60° C.) via the 7500 Fast Real-Time PCR system [Applied Biosystems]. The 7500 v2.3 software was used for data collection and gene expression comparisons (2^−ΔΔCT method).
(§2) First, to validate the effect of GANT-61 inhibition on GLI1 target genes, rt-PCR on GANT-61 treated Rh18 and Rh41 cells was performed. These cell lines express GLI1.

The test system of a further experiment is hESCs. The experiment is described as follows: Marker expression in hESCs maintained in mTeSR1 media with GANT-61. The class given is cell-based, human. To be noted: 5 μM and 20 μM GANT-61, 6 or 12 days. The protocol:
H1 (WA01), a well characterized human embryonic stem cell line,^33 was purchased from WiCell (Madison, WI, www.wicell.org/home/stem-cells/catalog-of-stem-cell-lines/wa01.cmsx). The cells were maintained on Matrigel-coated culture dishes in mTeSR1 medium (STEMCELL Technologies) or StemMACS iPS-Brew XF (Miltenyi Biotec).
as §1
Next, the effect of GANT-61 on GLI1 and SHH pathway members PTCH1 and SMO expression and on pluripotency marker expression in hESCs was evaluated.

Another experiment relates to cancer cells. To be noted: cited from earlier work.
The next experiment has as its system H1 hESCs. The experiment can be described thus: Spontaneous differentiation of WT H1 hESC in embryoid bodies in the presence of GANT-61, real time PCR. The class given is cell-based, human. The protocol:
WT H1 hESC single cells were plated onto non-attachment plates and maintained in ESC media without FGF-β in the presence of FBS. Experimental group was cultured in the presence of GANT-61 (Tocris Biosciences, Cat. No. 3191) at concentration of 5 μM, while the control group was cultured in the presence of 5 μM DMSO. Media containing GANT-61 was replaced every other day. Embryoid bodies were collected at days 10 and 20. Markers for the three embryologic lineages were analyzed by real time PCR.
as §1
Background: In qPCR the cycle at which signal appears reflects the starting amount.

In a further experiment the test system is Rh18 cells. The experiment can be described thus: rt-PCR of GLI1 target gene Bcl-2 in GANT-61 treated Rh18 cells. The class given is cell-based. The protocol: as §1, §2
The subject of experiment [2] is lung adenocarcinoma cell lines. The settings on record: cited from earlier work.
Experiment [3] deals with GLI1 and GLI2 transcription factors. The settings on record: cited from earlier work.
[4] abbreviates: 5 μM GANT-61, day 10 embryoid bodies.
The mark [5] stands for this setting: 5 μM GANT-61, during the differentiation process.

“Also recorded” adds a separate entry of the source.

For `c1cc(-c2sc(-c3ccncc3)c(-c3ccncc3)c2-c2ccncc2)ccn1` [GANT-58], in the experiment with HUVEC cells (HUVEC cells), the “oxytocin induced HIF-1alpha expression” value is reported as “abrogate”. Moreover, the “angiogenic capacity of HUVEC cells” value in the experiment with HUVEC cells is “reduction”.
Regarding `CN(C)c1ccccc1CN1CCCN(Cc2ccccc2N(C)C)C1c1ccncc1` [GANT-61], the “binding to DNA” value in the experiment on DNA is on record as “does not bind”. Also, the “binding to GLI1” value on GLI1 is “binds”. Further, the cell death result in experiment [1] was “extensive cell death”. Besides, the Bcl-2 expression entry in the experiment with Rh41 cells is listed as “significant down-regulation”. Further, in the experiment on hESCs, the GLI1 expression entry was “no significant differences”, the PTCH1 expression entry is “no significant differences”, the SMO expression result was “no significant differences” and the pluripotency marker expression entry is reported as “no significant differences”. In the experiment with cancer cells, the apoptosis entry is recorded as “increases”, the proliferation entry was “reduces” and the stem cell markers result was “reduces”. Moreover, the “mesodermal commitment of H1 hESCs in embryoid bodies” value in the experiment on H1 hESCs is recorded as “inhibited”. Further, in the experiment on H1 hESCs (5 μM GANT-61, day 10), the GLI1 expression entry is on record as “down-regulated”, the GLI2 expression result is “down-regulated”, the PTCH1 expression entry is reported as “down-regulated” and the Plakoglobin expression entry is “down-regulated”. Moreover, in the experiment with H1 hESCs (5 μM GANT-61, day 10), the “expression of pluripotency genes” value is “down-regulated”. For the same molecule, in the experiment on H1 hESCs (setting [4]), the “ectodermal gene expression / differentiation” value is “decreased; also recorded: inhibited”, the “endodermal gene expression / differentiation” value is listed as “significantly increased; also recorded: promoted” and the “mesodermal gene expression / differentiation” value is “significantly increased; also recorded: promoted”. In addition, in the experiment on H1 hESCs (5 μM GANT-61, day 20), the GLI1 expression entry is given as “continued to down-regulate”, the GLI2 expression result was “continued to down-regulate”, the PTCH1 expression entry is “continued to down-regulate” and the endodermal marker expression result is given as “significantly decreased; also recorded: significantly reduced”. In addition, in the experiment on H1 hESCs (5 μM GANT-61, day 20), the “expression of pluripotency genes” value is reported as “continued to down-regulate” and the mesodermal marker expression entry is listed as “significantly decreased; also recorded: significantly reduced”. Besides, in the experiment with H1 hESCs (setting [5]), the GLI1 expression entry is given as “significantly down-regulated” and the PTCH1 expression entry is “significantly down-regulated”. In the experiment on Rh18 cells, the Bcl-2 expression result is recorded as “significant down-regulation”. Further, the cancer initiating phenotype entry in [2] was “effective inhibiting”. The “binding of GLI1 and GLI2 transcription factors to DNA” value in experiment [3] is listed as “inhibiting the binding”.
